Measurements taken from publication PMC6680932, “Structure–Antioxidant–Antiproliferative Activity Relationships of Natural C7 and C7–C8 Hydroxylated Flavones and Flavanones” (Antioxidants, 2019).
Where two headings read alike, the source gives them in different places.

Experiments:
[1] = system: MV-4-11 (biphenotypic B myelomonocytic leukemia); assay: Antiproliferative activity in vitro, MTT assay; format: cell-based, human; conditions: read-out: IC50 ± SD MV-4-11
LoVo (colon cancer) = assay: Antiproliferative activity in vitro, SRB assay; format: cell-based, human; conditions: read-out: IC50 ± SD LoVo
Protocol: (§1) The antiproliferative studies were performed in vitro using human cancer cell lines—MV-4-11 (biphenotypic B myelomonocytic leukemia), MCF7 (breast carcinoma), LoVo (colon cancer), LoVo/DX (colon cancer doxorubicin-resistant), and DU 145 (prostate cancer)—and normal human cell lines—MCF 10A (breast cells) and HLMEC (lung microvascular endothelial cells). The cell lines MV-4-11, LoVo, DU 145, and MCF 10A were obtained from the American Type Culture Collection (Rockville, Maryland, USA), MCF7 from the European Collection of Authenticated Cell Cultures (ECACC, Salisbury, UK), LoVo/DX courtesy of Professor E. Borowski (Technical University of Gdansk, Poland), and HLMECs (which had been already immortalized by transfection with pSV3-neoplasmid containing large T-antigen gene) were the kind gift of Professor Claudine Kieda (Center for Molecular Biophysics, Orleans, France). The cell lines are being maintained in the Hirszfeld Institute of Immunology and Experimental Therapy, Polish Academy of Sciences (HIIET, PAS), Wroclaw, Poland. All cell lines were grown at 37 °C with 5% CO2 humidified atmosphere. The MV-4-11 cells were cultured in RPMI 1640 medium with GlutaMAX (Gibco, Scotland, UK), supplemented with 1 mM sodium pyruvate and 10% fetal bovine serum (both from Sigma-Aldrich, Poznan, Poland). The MCF7 cells were cultured in Eagle medium (HIIET, PAS, Wroclaw, Poland) supplemented with 2 mM L-glutamine, 10% fetal bovine serum, 1% nonessential amino acid solution, and 0.8 mg/L of insulin (all from Sigma-Aldrich, Poznan, Poland). The LoVo and LoVo/DX cells were cultured in a 1:1 (v/v) mixture of RPMI 1640 and Opti-MEM (both HIIET, PAS, Wroclaw, Poland), supplemented with 1 mM sodium pyruvate, 2 mM L-glutamine, and 5% fetal bovine serum (all from Sigma-Aldrich, Poznan, Poland). For LoVo/DX cells, additionally 10 µg/100 mL of doxorubicin (Accord Healthcare) was added to the medium. DU 145 cells were cultured in Eagle medium (HIIET, PAS, Wroclaw, Poland) supplemented with 1 mM sodium pyruvate, 4 mM L-glutamine, and 10% fetal bovine serum (all from Sigma-Aldrich, Poznan, Poland). The MCF 10A cells were cultured in the F-12 nutrient mixture (Gibco, Scotland, UK), supplemented with 5% horse serum (Gibco, Scotland, UK), 0.05 μg/mL of cholera toxin (Vibrio cholerae), 0.5 μg/mL of hydrocortisone, 10 μg/mL of insulin, and 20 ng/mL of human epidermal growth factor (all from Sigma-Aldrich, Poznan, Poland). The HLMEC cells were cultured in the RPMI 1640 medium (HIIET, PAS, Wroclaw, Poland) with the addition of 2 mM L-glutamine (Sigma-Aldrich, Poznan, Poland) and 10% fetal bovine serum (GE Healthcare). All culture media were supplemented with 100 units/mL penicillin (Polfa Tarchomin S.A., Warsaw, Poland) and 100 µg/mL streptomycin (Sigma-Aldrich, Poznan, Poland). Twenty-four hours before addition of the tested agents, the cells were plated in 96-well plates (Sarstedt, Germany) at a density of 1 × 10^4 (1 × 10^3 for HLMEC and 0.75 × 10^4 for MCF7) cells per well in 100 μL of culture medium.
(§2) Tested compounds were dissolved in DMSO and then diluted in a 1:1 (v/v) mixture of RPMI 1640 (HIIET, PAS, Wroclaw, Poland) and Opti-MEM (Gibco, Scotland, UK) medium supplemented with 2 mM L-glutamine (Sigma-Aldrich, Poznan, Poland), 5% fetal bovine serum (GE Healthcare), 100 units/mL penicillin (Polfa Tarchomin S.A., Warsaw, Poland), and 100 µg/mL streptomycin (Sigma-Aldrich, Poznan, Poland). The antiproliferative effects of the flavonoids were examined after 72 h of exposure of the cultured cells to varying concentrations of the tested agents (from 0.1 to 100 μg/mL) using the MTT (for MV-4-11 cells) or SRB assay described below. Cisplatin (chemotherapy drug used to treat a number of cancers) was used as a positive control. The results are presented as an inhibitory concentration 50 (IC50), which is the concentration of the tested agent that inhibits proliferation of the cell population by 50%. IC50 values for each experiment were calculated separately. […]

MCF 10A (breast cells) = assay: Antiproliferative activity in vitro, SRB assay; format: cell-based, human; conditions: read-out: IC50 ± SD MCF 10A
Protocol: as §1, §2

MCF7 (breast carcinoma) = assay: Antiproliferative activity in vitro, SRB assay; format: cell-based, human; conditions: read-out: IC50 ± SD MCF7
Protocol: as §1, §2

[2] = system: HLMEC (lung microvascular endothelial cells); assay: Antiproliferative activity in vitro, SRB assay; format: cell-based, human; conditions: read-out: IC50 ± SD HLMEC
Protocol: as §1, §2

[3] = system: LoVo/DX (colon cancer doxorubicin-resistant); assay: Antiproliferative activity in vitro, SRB assay; format: cell-based, human; conditions: 72 h exposure, read-out: IC50 ± SD LoVo/DX
DU 145 (prostate cancer) = assay: Antiproliferative activity in vitro, SRB assay; format: cell-based, human; conditions: read-out: IC50 ± SD DU 145
[4] = DPPH free radical scavenging activity assay; conditions: for TEAC DPPH: 10 min, 517 nm, mean ± SD; for increase of antioxidant activity in DPPH test, biotransformation product vs substrate: 8-hydroxylated product relative to the substrate from which it was obtained
Protocol: (§3) The antioxidant capacity of flavonoids was measured in three separate tests: ABTS, DPPH, and ferric ion reducing antioxidant power (FRAP) assays (ABTS, DPPH, and FRAP reagents from Sigma-Aldrich). All tested compounds were dissolved in DMSO. All determinations were performed in triplicate. Standard curves were prepared for all assays using different concentrations of Trolox (6-hydroxy-2,5,7,8-tetramethylchroman-2-carboxylic acid) (Sigma-Aldrich). Trolox is a water-soluble analogue of vitamin E with high antioxidant activity, commonly used as a control and a reference in studies of antioxidant activity. The results were expressed as the equivalent of μmol Trolox per μmol of the test compound. The absorbance was measured using a UV-2401 PC spectrophotometer (Shimadzu, Kyoto, Japan). Concentrations of the tested samples were in the range from 50 µg/mL to 10 mg/mL.
The DPPH (2,2-diphenyl-1-picrylhydrazyl) radical scavenging activity of samples was determined according to the method described by Yen and Chen with some modifications. Samples (0.1 mL) of known concentration were mixed in polystyrene cuvettes with 2 mL of 0.04 mM DPPH in ethanol and 0.4 mL of ethanol. The absorbance was measured after 10 min at λ = 517 nm. The DPPH reagent was freshly prepared before each experiment.

[5] = ABTS radical cation decolorization assay; conditions: for TEAC ABTS: 6 min incubation, 734 nm, mean ± SD; for increase of antioxidant activity in ABTS test, biotransformation product vs substrate: 8-hydroxylated product relative to the substrate from which it was obtained
Protocol: as §3
The radical cation scavenging capacity of the tested compounds was examined against ABTS^+ (2,2’-azino-bis(3-ethylbenzo-thiazoline-6-sulfonic acid) according to the procedure described by Re et al. with some modifications. The test sample (30 μL) of known concentration was mixed in a polystyrene cuvette with 3 mL of ABTS solution with a measured absorption of 0.700 at a wavelength of λ = 734 nm. After 6 min of incubation, the absorption of samples was recorded. The ABTS reagent was freshly prepared before each experiment.

[6] = FRAP (ferric ion reducing antioxidant power) assay; conditions: for TEAC FRAP: 10 min, 593 nm, mean ± SD
Protocol: as §3
The FRAP method is based on measuring the ability of antioxidants to reduce ferric 2,4,6-tris(2-pyridyl)-1,3,5-triazine [Fe(III)-TPTZ] in the blue colored ferrous form, which absorbs light at λ = 593 nm. The Fe(III)-TPTZ reagent was prepared as a mixture of acetate buffer (pH 3.6), 10 mM TPTZ in 40 mM HCl, and 20 mM FeCl3 in the ratio of 10:1:1 (v/v/v). The FRAP reagent was freshly prepared before each experiment. The samples (0.1 mL) were mixed in polystyrene cuvettes with 3 mL of ferric complex and 0.9 mL of distilled water. The absorbance was measured after 10 min at λ = 593 nm.

[7] = 72 h exposure, SRB, normal cell line
[8] = Homo sapiens, MV4-11, 72 h exposure
[9] = Homo sapiens, LoVo, 72 h, 72 h exposure, SRB
[10] = Homo sapiens, MCF7, 72 h exposure, SRB
[11] = Homo sapiens, Endothelial cell, 72 h exposure, SRB, normal cell line

Row | Compound | IC50 (LoVo (colon cancer); [9]) [µM] | IC50 (MCF7 (breast carcinoma); [10]) [µM] | IC50 ([3]; Homo sapiens, LoVo/DX) [µM] | TEAC DPPH [4] | TEAC ABTS [5] | IC50 [2, 11] [µM] | TEAC FRAP [6] | increase of antioxidant activity in DPPH test, biotransformation product vs substrate [4] | increase of antioxidant activity in ABTS test, biotransformation product vs substrate [5] | also measured
1 | N.N.[Cl][Pt][Cl] [Cisplatin, reference compound] | – | – | – | – | – | – | – | – | – | IC50 ([1]; 72 h exposure): 1.6 ± 0.33 µM; IC50 (LoVo (colon cancer); 72 h exposure, SRB): 5.87 ± 1.72 µM; IC50 (MCF 10A (breast cells); [7]): 10.6 ± 1.17 µM; IC50 (MCF7 (breast carcinoma); 72 h exposure, SRB): 7.5 ± 1.32 µM; IC50 [2, 7]: 1.07 ± 0.05 µM; IC50 [3]: 3.23 ± 0.77 µM; IC50 (DU 145 (prostate cancer); 72 h exposure, SRB): 1.47 ± 0.12 µM
2 | O=C1C[C@@H](c2ccc(O)c(O)c2)Oc2cc(O)cc(O)c21 [Compound 7, eriodictyol] | – | – | 99.2 ± 12.5 | 9.582 ± 0.315 µmol trolox per µmol of tested | 13.988 ± 0.251 µmol trolox per µmol of tested | – | 10.619 ± 0.319 µmol trolox per µmol of tested | – | – | IC50 (LoVo (colon cancer); Homo sapiens, LoVo, 72 h): 101 ± 10.9 µM; IC50 (MCF 10A (breast cells); Homo sapiens, MCF-10A, 72 h): 147 ± 36.2 µM; IC50 (MCF7 (breast carcinoma); Homo sapiens, MCF7, 72 h): 151 ± 9.31 µM; IC50 ([2]; Homo sapiens, Endothelial cell, 72 h): 25.8 ± 6.71 µM; IC50 (DU 145 (prostate cancer); Homo sapiens, DU-145, 72 h): 121 ± 18.4 µM
3 | O=c1cc(-c2ccccc2)oc2c(O)c(O)cc(O)c12 [Compound 9, 8-hydroxychrysin] | – | – | – | 8.038 ± 0.061 µmol trolox per µmol of tested | 14.173 ± 1.591 µmol trolox per µmol of tested | 120 ± 2.24 | 8.900 ± 0.582 µmol trolox per µmol of tested | about 2000 fold | about 170 fold | –
4 | O=C1CC(c2ccccc2)Oc2c(O)c(O)cc(O)c21 (centres unmarked) [Compound 13, 8-hydroxypinocembrin] | – | – | – | 9.164 ± 0.097 µmol trolox per µmol of tested | 20.763 ± 0.939 µmol trolox per µmol of tested | 148 ± 13.4 | 12.861 ± 0.313 µmol trolox per µmol of tested | about 1800 fold | about 130 fold | –

Second part, led by results:

Row | IC50 (LoVo (colon cancer); [9]) [µM] | IC50 (MCF7 (breast carcinoma); [10]) [µM] | IC50 ([3]; Homo sapiens, LoVo/DX) [µM] | Compound | TEAC DPPH [4] | TEAC ABTS [5] | IC50 [2, 11] [µM] | TEAC FRAP [6] | increase of antioxidant activity in DPPH test, biotransformation product vs substrate [4] | increase of antioxidant activity in ABTS test, biotransformation product vs substrate [5] | also measured
5 | 28 ± 8.17 | 75 ± 26.1 | 13 ± 1.29 | O=c1cc(-c2ccccc2)oc2cc(O)cc(O)c12 [Compound 1, Chrysin] | 0.004 ± 0.001 µmol trolox per µmol of tested | 0.084 ± 0.011 µmol trolox per µmol of tested | 22.9 ± 2.02 | – | – | – | IC50 [1, 8]: 15.1 ± 1.99 µM; IC50 (MCF 10A (breast cells); Homo sapiens, MCF-10A, 72 h exposure, SRB, normal cell line): 27 ± 12 µM
6 | 15 ± 2.2 | 123 ± 37.4 | 13.4 ± 3.02 | COc1ccc(-c2cc(=O)c3c(O)cc(O)cc3o2)cc1O [Compound 4, diosmetin] | 0.008 ± 0.001 µmol trolox per µmol of tested | 1.712 ± 0.041 µmol trolox per µmol of tested | 14.4 ± 1.95 | – | – | – | IC50 [1, 8]: 8.39 ± 3.53 µM
7 | 238 ± 35.4 | – | – | O=c1cc(-c2ccc(O)c(O)c2)oc2c(O)c(O)cc(O)c12 [Compound 11, 8-hydroxyluteolin] | 13.208 ± 0.080 µmol trolox per µmol of tested | 34.450 ± 1.016 µmol trolox per µmol of tested | 106 ± 1.72 | 36.895 ± 0.432 µmol trolox per µmol of tested | – | more than twice as active | –
8 | 224 ± 15.3 | – | – | COc1ccc(-c2cc(=O)c3c(O)cc(O)c(O)c3o2)cc1O [Compound 12, 8-Hydroxydiosmetin] | 8.496 ± 0.040 µmol trolox per µmol of tested | 13.405 ± 0.826 µmol trolox per µmol of tested | 108 ± 15.4 | 11.340 ± 0.203 µmol trolox per µmol of tested | – | – | –
9 | – | 135 ± 20.3 | – | COc1ccc(C2CC(=O)c3c(O)cc(O)c(O)c3O2)cc1O (centres unmarked) [Compound 18, 8-hydroxyhesperetin] | 14.150 ± 0.229 µmol trolox per µmol of tested | 31.187 ± 1.353 µmol trolox per µmol of tested | 97.1 ± 5.15 | 25.260 ± 0.909 µmol trolox per µmol of tested | 144 fold | more than twice as active | increase of antioxidant activity in FRAP test, biotransformation product vs substrate ([6]; 8-hydroxylated product relative to the substrate from which it was obtained): 6 fold
